According to ChEMBL document CHEMBL1201862, “PubChem BioAssay data set” (2004):
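Test compounds were applied to cells in 96-well plates for 48 hours at 5 doses. At the GI50, growth is halved.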 The source made the active and inactive calls. No stated cut-off is given here; in the data, active = GI50 up to about 1.1 µM and inactive = higher.

Tests used:
Assay in all cases: DTP human tumour cell line panel, 48 h
NCI-H23 = tested on: NCI-H23
IGROV-1 = tested on: IGROV-1
K562 = tested on: K562
ACHN = tested on: ACHN
SK-MEL-2 = tested on: SK-MEL-2
UO-31 = tested on: UO-31
HT-29 = tested on: HT-29
OVCAR-3 = tested on: OVCAR-3
EKVX = tested on: EKVX
SF-539 = tested on: SF-539
OVCAR-8 = tested on: OVCAR-8
SNB-19 = tested on: SNB-19
SK-OV-3 = tested on: SK-OV-3
M14 = tested on: M14
HOP-62 = tested on: HOP-62
RPMI-8226 = tested on: RPMI-8226
T47D = tested on: T47D
DU-145 = tested on: DU-145
SK-MEL-28 = tested on: SK-MEL-28
HCC 2998 = tested on: HCC 2998
SK-MEL-5 = tested on: SK-MEL-5
MDA-MB-231 = tested on: MDA-MB-231
SNB-75 = tested on: SNB-75
MOLT-4 = tested on: MOLT-4
NCI-H226 = tested on: NCI-H226
NCI-H460 = tested on: NCI-H460
OVCAR-4 = tested on: OVCAR-4
A549 = tested on: A549
U-251 = tested on: U-251
A498 = tested on: A498
MDA-N = tested on: MDA-N
MCF7 = tested on: MCF7
CAKI-1 = tested on: CAKI-1
UACC-257 = tested on: UACC-257
KM12 = tested on: KM12
TK-10 = tested on: TK-10
786-0 = tested on: 786-0
HOP-92 = tested on: HOP-92
Malme-3M = tested on: Malme-3M
PC-3 = tested on: PC-3
NCI/ADR-RES = tested on: NCI/ADR-RES
SW-620 = tested on: SW-620
COLO 205 = tested on: COLO 205
UACC-62 = tested on: UACC-62
LOX IMVI = tested on: LOX IMVI
MDA-MB-435 = tested on: MDA-MB-435
SN12C = tested on: SN12C
SF-268 = tested on: SF-268
HL-60 = tested on: HL-60
HCT-15 = tested on: HCT-15
BT-549 = tested on: BT-549
SR = tested on: SR
SF-295 = tested on: SF-295
HCT-116 = tested on: HCT-116
Hs-578T = tested on: Hs-578T
OVCAR-5 = tested on: OVCAR-5
CCRF-CEM = tested on: CCRF-CEM
NCI-H522 = tested on: NCI-H522

CC1(C)C(=O)C(C)(C)C12SSC1(S2)C(C)(C)C(=O)C1(C)C
GI50 (NCI-H23): > 100 µM (inactive) | GI50 (IGROV-1): > 100 µM (inactive) | GI50 (K562): > 100 µM (inactive) | GI50 (ACHN): > 100 µM (inactive) | GI50 (SK-MEL-2): > 100 µM (inactive) | GI50 (UO-31): > 100 µM (inactive) | GI50 (HT-29): > 100 µM (inactive) | GI50 (OVCAR-3): > 100 µM (inactive) | GI50 (EKVX): > 100 µM (inactive) | GI50 (SF-539): > 100 µM (inactive) | GI50 (OVCAR-8): > 100 µM (inactive) | GI50 (SNB-19): > 100 µM (inactive) | GI50 (SK-OV-3): > 100 µM (inactive) | GI50 (M14): > 100 µM (inactive) | GI50 (HOP-62): > 100 µM (inactive) | GI50 (RPMI-8226): 65.9 µM (inactive) | GI50 (T47D): > 100 µM (inactive) | GI50 (DU-145): > 100 µM (inactive) | GI50 (SK-MEL-28): > 100 µM (inactive) | GI50 (HCC 2998): > 100 µM (inactive) | GI50 (SK-MEL-5): > 100 µM (inactive) | GI50 (MDA-MB-231): > 100 µM (inactive) | GI50 (SNB-75): > 100 µM (inactive) | GI50 (MOLT-4): 71.4 µM (inactive) | GI50 (NCI-H226): 42.6 µM (inactive) | GI50 (NCI-H460): > 100 µM (inactive) | GI50 (OVCAR-4): > 100 µM (inactive) | GI50 (A549): 64.9 µM (inactive) | GI50 (U-251): > 100 µM (inactive) | GI50 (A498): > 100 µM (inactive) | GI50 (MDA-N): > 100 µM (inactive) | GI50 (MCF7): > 100 µM (inactive) | GI50 (CAKI-1): > 100 µM (inactive) | GI50 (UACC-257): > 100 µM (inactive) | GI50 (KM12): > 100 µM (inactive) | GI50 (TK-10): > 100 µM (inactive) | GI50 (786-0): > 100 µM (inactive) | GI50 (HOP-92): > 100 µM (inactive) | GI50 (Malme-3M): 48.2 µM (inactive) | GI50 (PC-3): 84.5 µM (inactive) | GI50 (NCI/ADR-RES): 77.1 µM (inactive) | GI50 (SW-620): > 100 µM (inactive) | GI50 (COLO 205): 67 µM (inactive) | GI50 (UACC-62): > 100 µM (inactive) | GI50 (LOX IMVI): > 100 µM (inactive) | GI50 (MDA-MB-435): > 100 µM (inactive) | GI50 (SN12C): > 100 µM (inactive) | GI50 (SF-268): > 100 µM (inactive) | GI50 (HL-60): 2.41 µM (inactive) | GI50 (HCT-15): > 100 µM | GI50 (BT-549): > 100 µM (inactive) | GI50 (SR): > 100 µM (inactive) | GI50 (SF-295): > 100 µM (inactive) | GI50 (HCT-116): > 100 µM (inactive) | GI50 (Hs-578T): > 100 µM (inactive) | GI50 (OVCAR-5): > 100 µM (inactive)

Cc1nn(C(=O)Cc2ccccc2)c2c1C(c1ccc(O)cc1O)SC(=N)N2 (stereo unspecified)
GI50 (NCI-H23): > 100 µM (inactive) | GI50 (IGROV-1): > 100 µM (inactive) | GI50 (ACHN): > 100 µM (inactive) | GI50 (UO-31): > 100 µM (inactive) | GI50 (HT-29): > 100 µM (inactive) | GI50 (EKVX): > 100 µM (inactive) | GI50 (CCRF-CEM): > 100 µM (inactive) | GI50 (SF-539): > 100 µM (inactive) | GI50 (OVCAR-8): > 100 µM (inactive) | GI50 (NCI-H522): > 100 µM (inactive) | GI50 (SNB-19): > 100 µM (inactive) | GI50 (SK-OV-3): > 100 µM (inactive) | GI50 (M14): > 100 µM (inactive) | GI50 (HOP-62): > 100 µM (inactive) | GI50 (RPMI-8226): > 100 µM (inactive) | GI50 (T47D): > 100 µM (inactive) | GI50 (DU-145): > 100 µM (inactive) | GI50 (SK-MEL-28): > 100 µM (inactive) | GI50 (HCC 2998): > 100 µM (inactive) | GI50 (SK-MEL-5): > 100 µM (inactive) | GI50 (MDA-MB-231): > 100 µM (inactive) | GI50 (SNB-75): 17.2 µM (inactive) | GI50 (MOLT-4): > 100 µM (inactive) | GI50 (NCI-H226): > 100 µM (inactive) | GI50 (NCI-H460): > 100 µM (inactive) | GI50 (A549): > 100 µM (inactive) | GI50 (A498): > 100 µM (inactive) | GI50 (MDA-N): > 100 µM (inactive) | GI50 (MCF7): > 100 µM (inactive) | GI50 (CAKI-1): > 100 µM (inactive) | GI50 (UACC-257): > 100 µM (inactive) | GI50 (KM12): > 100 µM (inactive) | GI50 (TK-10): > 100 µM (inactive) | GI50 (786-0): > 100 µM (inactive) | GI50 (Malme-3M): > 100 µM (inactive) | GI50 (PC-3): > 100 µM (inactive) | GI50 (SW-620): > 100 µM (inactive) | GI50 (COLO 205): > 100 µM (inactive) | GI50 (UACC-62): > 100 µM (inactive) | GI50 (LOX IMVI): > 100 µM (inactive) | GI50 (MDA-MB-435): > 100 µM (inactive) | GI50 (SN12C): > 100 µM (inactive) | GI50 (SF-268): > 100 µM (inactive) | GI50 (HL-60): > 100 µM (inactive) | GI50 (HCT-15): > 100 µM | GI50 (BT-549): > 100 µM (inactive) | GI50 (SR): > 100 µM (inactive) | GI50 (SF-295): > 100 µM (inactive) | GI50 (HCT-116): > 100 µM (inactive) | GI50 (Hs-578T): > 100 µM (inactive)

CN1C2CCC1C(C(O)c1ccccc1[N+](=O)[O-])C(=O)C2 (stereo unspecified)
GI50 (NCI-H23): 73.8 µM (inactive) | GI50 (IGROV-1): 24.9 µM (inactive) | GI50 (K562): 32.1 µM (inactive) | GI50 (ACHN): > 100 µM (inactive) | GI50 (SK-MEL-2): > 100 µM (inactive) | GI50 (UO-31): 47.1 µM (inactive) | GI50 (HT-29): 32.4 µM (inactive) | GI50 (OVCAR-3): 34.7 µM (inactive) | GI50 (EKVX): > 100 µM (inactive) | GI50 (CCRF-CEM): 46.9 µM (inactive) | GI50 (SF-539): 29.8 µM (inactive) | GI50 (OVCAR-8): 31.6 µM (inactive) | GI50 (NCI-H522): 40.3 µM (inactive) | GI50 (SNB-19): > 100 µM (inactive) | GI50 (SK-OV-3): > 100 µM (inactive) | GI50 (M14): 35.2 µM (inactive) | GI50 (HOP-62): 45.3 µM (inactive) | GI50 (RPMI-8226): 40.8 µM (inactive) | GI50 (T47D): 26.6 µM (inactive) | GI50 (DU-145): 28.3 µM (inactive) | GI50 (SK-MEL-28): > 100 µM (inactive) | GI50 (HCC 2998): > 100 µM (inactive) | GI50 (SK-MEL-5): 31.1 µM (inactive) | GI50 (MDA-MB-231): 64 µM (inactive) | GI50 (MOLT-4): 47.4 µM (inactive) | GI50 (NCI-H226): 24.2 µM (inactive) | GI50 (NCI-H460): > 100 µM (inactive) | GI50 (OVCAR-4): 77.3 µM (inactive) | GI50 (A549): > 100 µM (inactive) | GI50 (U-251): > 100 µM (inactive) | GI50 (A498): > 100 µM (inactive) | GI50 (MDA-N): 27 µM (inactive) | GI50 (MCF7): 39.1 µM (inactive) | GI50 (CAKI-1): 38.4 µM (inactive) | GI50 (UACC-257): > 100 µM (inactive) | GI50 (KM12): 36.5 µM (inactive) | GI50 (TK-10): > 100 µM (inactive) | GI50 (786-0): 44 µM (inactive) | GI50 (Malme-3M): > 100 µM (inactive) | GI50 (PC-3): 45.7 µM (inactive) | GI50 (NCI/ADR-RES): 23.4 µM (inactive) | GI50 (SW-620): 45.2 µM (inactive) | GI50 (COLO 205): 34.6 µM (inactive) | GI50 (UACC-62): > 100 µM (inactive) | GI50 (LOX IMVI): 41.7 µM (inactive) | GI50 (MDA-MB-435): 23.6 µM (inactive) | GI50 (SN12C): 33.7 µM (inactive) | GI50 (SF-268): 57.1 µM (inactive) | GI50 (HL-60): 31.8 µM (inactive) | GI50 (HCT-15): 19.5 µM | GI50 (BT-549): 43.9 µM (inactive) | GI50 (SF-295): 58.1 µM (inactive) | GI50 (HCT-116): 32.3 µM (inactive) | GI50 (Hs-578T): 53.2 µM (inactive) | GI50 (OVCAR-5): > 100 µM (inactive)
